The numbers were not newly measured in patent publication US20230047393A1 (EWHA DrugDesignHouse Co.,Ltd., priority 2021, published 2023), which cites them from elsewhere.

Data set [1] concerns human lens epithelial cells line SRA01/04. As to conditions: SRA01/04 cells, nontoxic concentrations; cited from earlier work.
In another data set the test system is rabbit GFS model. The settings on record: cited from earlier work.
In data set [2] the test system is rabbit model of trabeculectomy. As to conditions: cited from earlier work.
The subject of a further data set is rabbit PVR trauma model. As to conditions: intravitreal injection; cited from earlier work.
For data set [3], the system named is TFG-β2-treated perfused human anterior segments. The settings on record: cited from earlier work.
Data set [4] has as its system TFG-β2-treated trabecular meshwork cell cultures. As to conditions: cited from earlier work.
A further data set deals with mouse B16 melanoma model. As to conditions: mouse B16 melanoma model, with enhanced CTL responses; cited from earlier work.
In data set [5] the test system is laser-induced CNV in retina of mice. The settings on record: day 14 after laser-induced CNV formation, vs PBS treated control (p<0.05, n=5 per group); cited from earlier work.

For the molecule `Cc1ccc(=O)n(-c2ccccc2)c1` [Pirfenidone], the “TGF-β-induced proliferation, migration, and EMT” value in data set [1] is recorded as “inhibits”.

Take `Cc1cccc(-c2[nH]c(C(C)(C)C)nc2-c2ccc3c(c2)OCO3)n1` [SB-505124]: the “ocular scarring following GFS” value in the data set with rabbit GFS model is “prevents”. Also, in data set [2], the TFG-β activity result was “inhibited” and the bleb survival entry is listed as “promoted”.

As to `c1ccc(-c2[nH]ncc2-c2ccnc3ccccc23)nc1` [LY-364947], the “PVR development and subsequent tractional retinal detachment” value in the data set on rabbit PVR trauma model is “prevents”.

Take `NC(=O)c1ccc(-c2nc(-c3ccc4c(c3)OCO4)c(-c3ccccn3)[nH]2)cc1` [SB-431542]: the level of fibronectin entry in data set [3] is recorded as “reduces”. Besides, the “levels of fibronectin and plasminogen activator inhibitor-1 (PAI-1)” value in data set [4] is “reduces”. For the same molecule, the “post-surgical scarring and fibrosis after GFS” value in the data set with rabbit GFS model is “decreases”.

For the molecule `Cc1cccc(-c2nn3c(c2-c2ccnc4ccc(C(N)=O)cc24)CCC3)n1` [LY-2157299, reference compound], the progression of melanoma result with mouse B16 melanoma model is given as “suppress”. The “neovascular area in retina” value in data set [5] is on record as “reduces”.
